From patent US20260199564A1, “METHOD OF PREVENTING BLOOD COAGULATION AND DRUG-ELUTING IMPLANT FOR PERCUTANEOUS CORONARY INTERVENTION” (priority 2023, published 2026) come the findings set out here.

In this data set the target is T1, CYP2B6 (Homo sapiens, UniProt P20813).
T1 construct: with pooled human liver microsomes; from tissue; host or cells: pooled human liver microsomes
T1 sequence (P20813 1-491): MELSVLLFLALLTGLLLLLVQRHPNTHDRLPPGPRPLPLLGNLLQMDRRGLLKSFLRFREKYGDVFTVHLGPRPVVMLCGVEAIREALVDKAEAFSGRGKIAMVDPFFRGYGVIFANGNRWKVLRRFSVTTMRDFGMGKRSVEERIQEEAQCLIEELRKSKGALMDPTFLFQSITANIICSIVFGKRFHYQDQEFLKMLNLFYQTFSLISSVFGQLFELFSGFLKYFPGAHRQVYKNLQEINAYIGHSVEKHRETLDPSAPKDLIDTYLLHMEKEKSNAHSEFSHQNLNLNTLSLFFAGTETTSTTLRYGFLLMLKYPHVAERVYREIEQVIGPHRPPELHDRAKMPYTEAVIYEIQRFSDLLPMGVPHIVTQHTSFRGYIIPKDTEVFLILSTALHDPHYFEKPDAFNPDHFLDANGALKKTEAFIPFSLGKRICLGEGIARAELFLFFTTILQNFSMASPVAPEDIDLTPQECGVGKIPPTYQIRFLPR
In words: Cytochrome P450 inhibition in human liver microsomes using LC-MS/MS, CYP2B6. The format is in vitro ADME. How it is done:
In IC50 shift experiments, CK (0.2 μL prepared in DMSO) was pre-incubated for 30 min at 37° C., at 8 different concentrations, with pooled human liver microsomes (0.1-1 mg/mL, depending on which enzyme was assessed) in the absence or presence of 1 mM NADPH in 100 μL of potassium phosphate buffer (100 mM, pH 7.4) and MgCl2 (2.5 mM). After the pre-incubation, a substrate mixture containing a probe substrate in 100 μL of potassium phosphate buffer (100 mM, pH 7.4), MgCl2 (2.5 mM), and NADPH (1 mM) was added for measurement of the corresponding P450 activities. Incubations were terminated by addition of 200 μL methanol. Samples were then extracted and centrifuged and the supernatant was subjected to validated LC-MS/MS analysis.
On the technique in general: Liver microsomes are a subcellular fraction often used to study metabolism.

SMILES strings stand for the structures.

Compound `CC(C)=CCC[C@](C)(O[C@@H]1O[C@H](CO)[C@@H](O)[C@H](O)[C@H]1O)[C@H]1CC[C@]2(C)[C@@H]1[C@H](O)C[C@@H]1[C@@]3(C)CC[C@H](O)C(C)(C)[C@@H]3CC[C@]12C` [CK, Ginsenoside compound K] gave an IC50 (pooled human liver microsomes, substrate Bupropion) of 14.8 µM. Under “ratio of IC50 with −NADPH to IC50 with +NADPH in the 30 min pre-incubation”, the “IC50 shift (fold difference)” value is reported as 1.08 fold.

For orientation: IC50 means the midpoint of a concentration-inhibition curve.
